In patent US20250066377A1, “AMINO CHROMEN-2-ONE MODULATORS OF POLRMT” (Pretzel Therapeutics, Inc., priority 2021, published 2025) one finds IC50 data, which are given here for 29 molecules.

Broadly, the IC50 is the concentration that inhibits the measured activity by half. Low readings indicate greater potency in that assay, high ones weaker potency in that assay.

The assay concerns the target POLRMT (Homo sapiens (Human), UniProt O00411). In words: POLRMT homogeneous TR-FRET mitochondrial transcription assay. The following applies: inhibition of POLRMT; TR-FRET detection of 407 bp RNA transcript; 7.5 nM POLRMT, 15 nM TFB2M, 30 nM TFAM, 60 minutes at 37° C. It is filed as biochemical. The method, then:
The inhibitory activity of the compounds of the present invention against POLRMT were determined by assays based on Bergbrede, T., et al., “An adaptable high-throughput technology enabling the identification of specific transcription modulators,” SLAC Discov., 22, 378-386 (2017).
The ability of some compounds of the present invention to inhibit POLRMT were determined in a homogeneous TR-FRET Assay using high-throughput screening in a 384-well plate format. This method is used to monitor the activity of mitochondrial transcription through measurement of its product, a 407 bp long RNA transcript. Detection of the product is facilitated by hybridization of two DNA-oligonucleotide probes to specific and adjacent sequences within the RNA product sequence. Upon annealing of the probes, two fluorophores are coupled directly to an acceptor nucleotide probe (ATTO647, 5′), or introduced via a coupled streptavidin with a biotinylated donor nucleotide probe (Europium cryptate) that is brought into sufficient proximity to serve as a fluorescence-donor-acceptor pair. Thus, a FRET signal at 665 nm is generated upon excitation at 340 nm.
Proteins used as transcription factors (POLRMT: NP_005026.3, TFAM: NP_003192.1, TFB2M: NP_071761.1) are diluted from their stocks to working concentrations of 1 μM, 20 μM and 4 μM respectively, in a dilution buffer containing 20 mM Tris-HCl (pH 8.0), 200 mM NaCl, 10% (v/v) glycerol, 1 mM Dithiothreitol (DTT), 0.5 mM EDTA.
DNA template is a pUC18 plasmid with the mitochondrial light strand promotor sequence (1-477) cloned between HindIII and BamHI sites. The DNA template is restriction linearized proximal to the promotor 3′-end (pUC-LSP).
The reaction mixture (10 uL) containing 7.5 nM POLRMT, 15 nM of TFB2M, 30 nM of TFAM, 0.5 nM of DNA template and 500 μM nucleotide triphosphate mix (NTPs) in a reaction buffer (containing 10 mM Tris-HCl (pH 7.5), 10 mM MgCl2, 40 mM NaCl, 10 mM DTT, 0.005% (w/v) Tween-20, 160 units/ml Rnase inhibitor and 0.1 mg/mL BSA) are dispensed to compounds in microplates, using a Thermo Multidrop® dispenser, and incubated at 37° C. in a VWR INCU-Line incubator for 60 minutes after mixing. No nucleotide triphosphate mix is added to negative control samples. Microplates with compounds to be tested in the assay are prepared from 10 mM compound stocks in 100% DMSO, equal amounts of DMSO without any compound are added to positive control and negative control samples.
During the incubation, a mix of the detection reagents is prepared in a buffer such that the enzymatic reaction is terminated due to chelating of Mg-ions and increased ionic strength, containing 50 mM Tris-HCl (pH 7.5), 700 mM NaCl, 20 mM EDTA, and 0.01% (w/v) Tween-20. Europium-streptavidin is pre-incubated with a 200-fold molar excess of a random sequence oligonucleotide to block unspecific binding of oligo, for two hours at ambient temperature in the dark. Afterwards, the blocked Europium-streptavidin is kept on ice until use.
At the end of the enzymatic reaction time, 5 μL detection oligo mix in the detection buffer is added, and assay plates are mixed and kept at ambient temperature for one hour, protected from light. The concentration of the Acceptor nucleotide oligo (e.g., ATTO647N-5′-[…]-3′) and Donor nucleotide oligo (e.g., bio-5′-AACACATCTCT(-bio)GCCAAACCCCA-bio-3′) in each assay well is 1 nM, and 3 nM, respectively.
After incubation with oligo mix, 5 μL of pre-blocked Europium-streptavidin reagent is dispensed to each assay well, assay plates are again mixed and kept at ambient temperature for one hour, protected from light.
The generated signal is measured with BMG Pherastar microtiter plate reader with a TRF light unit, using excitation at 340 nm, an integration time of 200 μs, and a delay time of 100 μs, before detection at 620 nm and 665 nm. The ratio of donor- and acceptor-fluorescence is used as a measure of the generated transcript product (i.e. enzymatic activity).
For orientation: TR-FRET usually uses a lanthanide donor and a delayed reading to cut background.

The structures appear in SMILES notation.

POLRMT, sequence (O00411 42-1230): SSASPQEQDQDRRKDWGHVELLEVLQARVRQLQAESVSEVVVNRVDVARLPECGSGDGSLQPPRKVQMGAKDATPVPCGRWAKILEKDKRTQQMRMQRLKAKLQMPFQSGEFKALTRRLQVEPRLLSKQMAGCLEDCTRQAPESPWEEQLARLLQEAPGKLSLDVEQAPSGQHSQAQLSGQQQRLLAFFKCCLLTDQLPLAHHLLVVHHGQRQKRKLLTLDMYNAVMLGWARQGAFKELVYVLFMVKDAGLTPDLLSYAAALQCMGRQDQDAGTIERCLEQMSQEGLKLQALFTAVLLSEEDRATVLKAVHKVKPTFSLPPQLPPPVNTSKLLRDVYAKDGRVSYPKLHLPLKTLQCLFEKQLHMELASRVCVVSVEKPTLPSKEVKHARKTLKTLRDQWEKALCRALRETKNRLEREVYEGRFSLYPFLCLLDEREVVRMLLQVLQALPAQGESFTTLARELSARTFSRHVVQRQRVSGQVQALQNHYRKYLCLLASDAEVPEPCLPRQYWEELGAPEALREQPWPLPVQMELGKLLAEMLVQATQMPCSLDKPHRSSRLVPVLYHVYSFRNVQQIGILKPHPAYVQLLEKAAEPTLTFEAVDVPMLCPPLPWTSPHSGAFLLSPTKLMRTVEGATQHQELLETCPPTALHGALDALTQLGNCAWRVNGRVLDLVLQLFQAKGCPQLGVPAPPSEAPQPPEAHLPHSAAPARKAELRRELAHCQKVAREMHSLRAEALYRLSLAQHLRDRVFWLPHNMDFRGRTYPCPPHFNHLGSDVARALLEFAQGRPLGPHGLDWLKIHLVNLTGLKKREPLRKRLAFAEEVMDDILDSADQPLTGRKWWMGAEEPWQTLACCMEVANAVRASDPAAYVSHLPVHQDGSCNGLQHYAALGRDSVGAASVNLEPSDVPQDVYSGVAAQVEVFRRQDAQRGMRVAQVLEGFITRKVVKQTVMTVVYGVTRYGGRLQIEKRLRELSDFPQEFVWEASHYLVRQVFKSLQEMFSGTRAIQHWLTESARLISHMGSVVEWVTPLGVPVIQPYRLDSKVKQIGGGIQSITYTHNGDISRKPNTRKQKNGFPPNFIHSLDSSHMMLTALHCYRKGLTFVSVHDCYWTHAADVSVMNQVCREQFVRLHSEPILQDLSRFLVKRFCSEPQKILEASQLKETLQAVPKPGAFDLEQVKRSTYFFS

`Cc1ccccc1-c1cc(=O)oc2nc(N3CCC(N(C)C)C3)ccc12` (centres unmarked) [Example 08, 7-[3-(dimethylamino)pyrrolidin-1-yl]-4-(o-tolyl)pyrano[2,3-b]pyridin-2-one] had a 50% inhibitory concentration (IC50) of 18 µM.
As to `Cc1ccccc1-c1cc(=O)oc2nc(N3CCN(C)CC3)ccc12` [Example 09, 7-(4-methylpiperazin-1-yl)-4-(o-tolyl)pyrano[2,3-b]pyridin-2-one], the IC50 was > 100 µM.
The molecule `Cc1ccccc1-c1cc(=O)oc2nc(N3CC4(COC4)C3)ccc12` [Example 10, 7-(2-oxa-6-azaspiro[3.3]heptan-6-yl)-4-(o-tolyl)-2H-pyrano[2,3-b]pyridin-2-one] came in with an IC50 of 86 µM.
As to `Cc1ccccc1-c1cc(=O)oc2nc(N3CCN(C)C(=O)C3)ccc12` [Example 11, 7-(4-methyl-3-oxopiperazin-1-yl)-4-(o-tolyl)-2H-pyrano[2,3-b]pyridin-2-one], half-maximal inhibition (IC50) was put at 47 µM.
`Cc1ccccc1-c1cc(=O)oc2nc(N3CCC(F)(F)C3)ccc12` [Example 17, 7-(3,3-difluoropyrrolidin-1-yl)-4-(o-tolyl)-2H-pyrano[2,3-b]pyridin-2-one] registered a concentration for half-maximal inhibition (IC50) of 0.6 µM.
`Cc1ccccc1-c1cc(=O)oc2nc(N3CCC(F)C3)ccc12` (centres unmarked) [Example 18, 7-(3-fluoropyrrolidin-1-yl)-4-(o-tolyl)-2H-pyrano[2,3-b]pyridin-2-one] yielded an IC50 of 1 µM.
`Cc1ccccc1-c1cc(=O)oc2nc(N3CCC3)ccc12` [Example 19, 7-(azetidin-1-yl)-4-(o-tolyl)-2H-pyrano[2,3-b]pyridin-2-one] registered an IC50 of 0.3 µM.
Regarding `COC1CN(c2ccc3c(-c4ccccc4C)cc(=O)oc3n2)C1` [Example 20, 7-(3-methoxyazetidin-1-yl)-4-(o-tolyl)-2H-pyrano[2,3-b]pyridin-2-one], the IC50 amounted to 2 µM.
Take `O=c1cc(-c2ccc(F)cc2Cl)c2ccc(N3CCOCC3)nc2o1` [Example 21, 4-(2-chloro-4-fluorophenyl)-7-morpholino-2H-pyrano[2,3-b]pyridin-2-one]: half-maximal inhibition (IC50) was put at 3 µM.
With `CC(=O)NC1CCN(c2ccc3c(-c4ccccc4C)cc(=O)oc3n2)C1` (centres unmarked) [Example 22, N-(1-(2-oxo-4-(o-tolyl)-2H-pyrano[2,3-b]pyridin-7-yl)pyrrolidin-3-yl)acetamide], the IC50 worked out at 3 µM.
For the molecule `COC(=O)CN(C)c1ccc2c(-c3ccccc3C)cc(=O)oc2n1` [Example 35, methyl N-methyl-N-(2-oxo-4-(o-tolyl)-2H-pyrano[2,3-b]pyridin-7-yl)glycinate], the IC50 amounted to 0.2 µM.
On to `Cc1ccccc1-c1cc(=O)oc2nc(N(C)CC(=O)O)ccc12` [Example 36, N-methyl-N-(2-oxo-4-(o-tolyl)-2H-pyrano[2,3-b]pyridin-7-yl)glycine], for which the IC50 stood at 1 µM. This IC50 is about 5-fold higher than that of the molecule before.
As for `CNC(=O)CN(C)c1ccc2c(-c3ccccc3C)cc(=O)oc2n1` [Example 39, N-methyl-2-[methyl-[4-(o-tolyl)-2-oxo-pyrano[2,3-b]pyridin-7-yl]amino]acetamide], the midpoint of inhibition, the IC50, lay at 1 µM.
`Cc1ccccc1-c1cc(=O)oc2nc(N(C)CC(N)=O)ccc12` [Example 40, 2-[methyl-[4-(o-tolyl)-2-oxo-pyrano[2,3-b]pyridin-7-yl]amino]acetamide] registered an IC50 of 0.5 µM. This IC50 lies about 2-fold lower than the previous one.
Molecule `Cc1ccccc1-c1cc(=O)oc2nc(N(C)CCC(=O)O)ccc12` [Example 41, 3-[methyl-[4-(o-tolyl)-2-oxo-pyrano[2,3-b]pyridin-7-yl]amino]propanoic acid] displayed an IC50 of 7 µM.
The same measure for `Cc1ccccc1-c1cc(=O)oc2nc(N(C)CCC(N)=O)ccc12` [Example 42]: 3 µM; for `CNC(=O)CCN(C)c1ccc2c(-c3ccccc3C)cc(=O)oc2n1` [Example 43]: 7 µM.
`CN(CC(=O)O)c1ccc2c(-c3ccc(F)cc3Cl)cc(=O)oc2n1` [Example 44, N-(4-(2-chloro-4-fluorophenyl)-2-oxo-2H-pyrano[2,3-b]pyridin-7-yl)-N-methylglycine] registered an IC50 of 5 µM.
The molecule `CNC(=O)CN(C)c1ccc2c(-c3ccc(F)cc3Cl)cc(=O)oc2n1` [Example 45, 2-((4-(2-chloro-4-fluorophenyl)-2-oxo-2H-pyrano[2,3-b]pyridin-7-yl)(methyl)amino)-N-methylacetamide] came in with an IC50 of 1 µM. Against the preceding molecule, the IC50 is about 5-fold lower.
Under `CN(CC(N)=O)c1ccc2c(-c3ccc(F)cc3Cl)cc(=O)oc2n1` [Example 46, 2-((4-(2-chloro-4-fluorophenyl)-2-oxo-2H-pyrano[2,3-b]pyridin-7-yl)(methyl)amino)acetamide] stands 2 µM; under `CNC(=O)CCN(C)c1ccc2c(-c3ccc(F)cc3Cl)cc(=O)oc2n1` [Example 47, 3-((4-(2-chloro-4-fluorophenyl)-2-oxo-2H-pyrano[2,3-b]pyridin-7-yl)(methyl)amino)-N-methylpropanamide], 57 µM.
Take `Cc1cccc(C)c1-c1cc(=O)oc2nc(N3CCC[C@H]3C(=O)O)ccc12` [Example 50, (4-(2,6-dimethylphenyl)-2-oxo-2H-pyrano[2,3-b]pyridin-7-yl)-L-proline]: inhibition was half-maximal at 0.4 µM (IC50).
`Cc1cccc(C)c1-c1cc(=O)oc2nc(N3CCC[C@@H]3C(=O)O)ccc12` [Example 51, (4-(2,6-dimethylphenyl)-2-oxo-2H-pyrano[2,3-b]pyridin-7-yl)-D-proline]: the midpoint of inhibition, the IC50, lay at 0.1 µM.
Turning to `CN(CCC(N)=O)c1ccc2c(-c3ccc(F)cc3Cl)cc(=O)oc2n1` [Example 52, 3-((4-(2-chloro-4-fluorophenyl)-2-oxo-2H-pyrano[2,3-b]pyridin-7-yl)(methyl)amino)propanamide], the IC50 amounted to 10 µM.
The same measure for `COC(=O)[C@H](C)N(C)c1ccc2c(-c3ccc(F)cc3Cl)cc(=O)oc2n1` [Example 53, methyl N-(4-(2-chloro-4-fluorophenyl)-2-oxo-2H-pyrano[2,3-b]pyridin-7-yl)-N-methyl-L-alaninate]: 1 µM; for `COC(=O)[C@@H](C)N(C)c1ccc2c(-c3ccc(F)cc3Cl)cc(=O)oc2n1` [Example 54, methyl N-(4-(2-chloro-4-fluorophenyl)-2-oxo-2H-pyrano[2,3-b]pyridin-7-yl)-N-methyl-D-alaninate]: 0.2 µM; for `CN(CCC(=O)O)c1ccc2c(-c3ccc(F)cc3Cl)cc(=O)oc2n1` [Example 55, 3-((4-(2-chloro-4-fluorophenyl)-2-oxo-2H-pyrano[2,3-b]pyridin-7-yl)(methyl)amino)propanoic acid]: 12 µM.
With `Cc1cccc(C)c1-c1cc(=O)oc2nc(N(C)CC(N)=O)ccc12` [Example 56, 2-((4-(2,6-dimethylphenyl)-2-oxo-2H-pyrano[2,3-b]pyridin-7-yl)(methyl)amino)acetamide], the IC50 turned out to be 0.2 µM.
`Cc1ccccc1-c1cc(=O)oc2nc(N(C)CC(=O)NCC(=O)O)ccc12` [Example 60, N-methyl-N-(2-oxo-4-(o-tolyl)-2H-pyrano[2,3-b]pyridin-7-yl)glycylglycine] had an IC50 of 6 µM.
